Measurements from PMC12571071, “Preventing neuropathy and improving anticancer chemotherapy with a carbazole-based compound” (Science Advances, 2025).
Like-named read-outs stand apart in the source and are kept apart here.

Key:
[1] = test system: adult mouse DRG neurons; assay: Axonal degeneration index in dissociated adult mouse DRG neurons; details: 72 h
Description: After 4 days in vitro (DIV), at least 30% of medium was changed, and 10 μM AraC (cytosine β-D-arabino furanoside) was added to suppress nonneuronal growth. […] Neurons were fixed with 4% paraformaldehyde (PFA), washed with PBS, permeabilized with PBS–0.01% Triton X-100 for 15 min, and blocked with PBS–10% FBS for 1 hour before being stained overnight at 4°C with neurofilament antibody. Following PBS washes, secondary antibody (goat anti-chicken Alexa Fluor 488) was applied for 2 hours at room temperature (R.T.). Following additional PBS washes, coverslips were mounted with Fluoromount-G.
Images of random fields of dissociated adult DRG neurons, immunostained with antineurofilament or anti-TUBB3 antibodies, were captured using a 20× objective lens (Olympus IX81) and a Sensicam QE monochrome camera (Cooke Corporation). Degeneration masks were generated on the basis of the method described by Gerdts et al. ([66]). Axonal degeneration was quantified by measuring the total axonal area and fragmented axonal area in the same field, using degeneration masks as shown in fig. […] Images were processed in Fiji using global autothresholding, binarization, and the particle analyzer module to detect fragments (20 to 10,000 pixels), as previously described ([17]). The degeneration index was calculated as the ratio of fragmented axonal area to total axonal area.

[2] = test system: HeLa cells; assay: HeLa cell viability (PrestoBlue) assay, 72 h; format: cell-based, human
Description: The human HeLa cell line was tested negative for mycoplasma contamination. HeLa cells were grown in RPMI 1640 medium supplemented with penicillin/streptomycin (100 μg/ml) and 10% FBS and maintained in a humidified incubator at 37°C and 5% CO2.
Cell viability was analyzed using the colorimetric PrestoBlue assay. Cells were seeded in 96-well microplates at a density of 7500 cells per well, allowed to adhere for 24 hours, and treated for 72 hours with either DMSO or drugs at indicated concentrations. PrestoBlue (10 μl) was then added to each well, followed by a 30-min incubation. Fluorescence was measured using a FLUOstar Optima microplate reader (excitation, 544 nm; emission, 580 nm; BMG Labtech).

[3] = test system: HeLa cells; design: method as in PMID 32781579; details: dividing cells, 72-hour treatment; read-out: GI50 (50% of growth inhibition); cited from earlier work
[4] = target: T1, NAMPT (Homo sapiens, UniProt P43490); assay: NAMPT activity assay (coupled recombinant enzyme kit); format: biochemical; design: purchased Abcam ab221819; details: OD450 at 60 min, normalized by subtraction of DMSO value
Source text: We next tested whether Carba1 could activate NAMPT in vitro. To that aim, we used a commercial recombinant human enzyme assay containing four enzymes: NAMPT, NAM nucleotide adenylyltransferase 1 (NMNAT1), alcohol dehydrogenase (ADH), and diaphorase (see Materials and Methods). In the presence of NAM and 5-phosphoribosyl-1-pyrophosphate (PRPP), NAMPT converts NAM to NMN, which is then converted into NAD^+ by NMNAT1, while ADH converts NAD^+ to NADH. Then, into a coupled-reaction, diaphorase converts NADH into NAD^+ and tetrazolium salt WST-1 {4-[3-(4-iodophenyl)-2-(4-nitro-phenyl)-2H-5-tetrazolio]-1,3-benzene sulfonate} to formazan, which can be detected at optical density at 450 nm (OD450). In practice, we proceeded in two steps. First, Carba1 and the different tested compounds were incubated for 15 min with NAMPT, NMNAT1, NAM, and PRPP to allow NAD^+ production. The reaction was then stopped with FK866 before adding ADH and diaphorase to convert the NAD^+ produced to NADH, and absorbance was monitored at regular intervals.
NAMPT activity was measured using the commercial kit, NAMPT Activity Assay, according to the manufacturer’s instructions. […] A mixture of water-soluble tetrazolium salts (WST-1), ADH, diaphorase, and ethanol was added and the absorbance (OD450) measured for 90 min using the microplate reader ClarioSTAR (BMG Labtech).
Target sequence in this assay (P43490 whole entry): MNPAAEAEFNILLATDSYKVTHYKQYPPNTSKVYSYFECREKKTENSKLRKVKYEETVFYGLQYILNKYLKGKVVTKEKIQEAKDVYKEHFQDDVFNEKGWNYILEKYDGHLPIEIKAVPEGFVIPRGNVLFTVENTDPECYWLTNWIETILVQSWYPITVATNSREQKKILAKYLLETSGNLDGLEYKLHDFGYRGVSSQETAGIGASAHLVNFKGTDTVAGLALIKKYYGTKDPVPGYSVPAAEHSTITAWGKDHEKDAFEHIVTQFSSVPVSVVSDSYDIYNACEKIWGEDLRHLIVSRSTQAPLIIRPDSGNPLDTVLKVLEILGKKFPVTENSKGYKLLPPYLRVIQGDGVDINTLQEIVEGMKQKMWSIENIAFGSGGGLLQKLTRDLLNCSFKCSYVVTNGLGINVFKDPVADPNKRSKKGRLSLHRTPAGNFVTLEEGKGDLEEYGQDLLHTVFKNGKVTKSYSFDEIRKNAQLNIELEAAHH

[5] = target: T1, NAMPT; assay: AS-MS binding assay, NAMPT; details: 10 μM compound, 3 μM NAMPT
Description: To this end, Carba1 or FK866 (positive control of NAMPT binding) was first incubated with NAMPT or carbonic anhydrase (CA; negative control). Protein-ligand complexes were separated from the unbound compounds by size exclusion chromatography (SEC). To quantify the protein-bound fraction, the complexes were then dissociated using reverse-phase chromatography, and the compounds were analyzed and quantified by mass spectrometry.
AS-MS was used to assess compound binding to NAMPT. AS-MS was performed by Edelris SAS (www.edelris.com/), which has developed the commercial AS-MS service “EDEN platform,” based on ([71]). Conditions consisted of protein (NAMPT and CA) at 3 μM and compounds (Carba1 and FK866) at 10 μM dissolved in corporate buffer.
Target sequence in this assay (P43490 whole entry, species assumed): as the sequence (P43490 whole entry) above

[6] = test system: rat embryonic DRG neurons; assay: Primary rat sensory neuron/Schwann cell culture exposed to Cis (myelination); format: cell-based; details: Cis 10 μg/ml; Carba1 tested at 1, 5, 10 μM
Description: These experiments, conducted by Neuro-Sys company (www.neuro-sys.com/) involved primary SNs and SCs cultured as previously described ([67]). On DIV 19, cultures were pretreated with Carba1 (1 to 10 μM) for 1 hour before exposure to Cis (10 μg/ml) for 24 hours in presence of Carba1. On DIV 20, the medium containing Cis was replaced with fresh medium and Carba1 for another 24 hours, ending the culture on DIV 21. Cells were fixed with ethanol/acetic acid (95%/5%) for 5 min, permeabilized, and blocked with PBS containing 0.1% saponin and 10% FBS. Cells were incubated with monoclonal anti-MBP (1:1000) and polyclonal anti-neurofilament (1:500) antibodies for 2 hours, followed by CF 488 A goat anti-mouse (1:400, Sigma-Aldrich) and Alexa Fluor 568 goat anti-rabbit (1:400, Molecular Probe) for 1 hour at R.T. Hoechst was used to stain nuclei.
Thirty images per well were acquired at ×20 magnification using ImageXpress (Molecular Devices) with identical acquisition settings, and analysis was automated with MetaXpress software. Key parameters measured included total neurite length (NF; in micrometers), total neurons (NF^+ cells), and myelination (MBP-NF overlap, in square micrometers).

[7] = test system: HeLa cells; assay: NAD(P)H autofluorescence imaging in live HeLa cells; format: cell-based, human; details: 12 μM, 24 hours
Description: HeLa cells were seeded in four-chamber Labtek plates at 10,000 cells per well. After 48 hours, cells were preincubated with or without 12 μM Carba1 for 2 hours before addition of FK866 (5 and 10 nM). Drugs were added to phenol red–free DMEM medium, supplemented with 10% FBS 1% penicillin/streptomycin. After 24 hours of drug incubation, cells were imaged using a confocal microscope (LSM 710, Zeiss) with a two-photon excitation at 700 nm (Chameleon Vision Laser, Coherent) and a 40×/1.2 water-immersion objective. Detection was performed in single-photon mode using an avalanche photodiode detector (ConfoCor 3). NAD(P)H signal intensity was quantified as the mean signal per cell using ImageJ and normalized to the cell area.

Cc1cc(-n2cccc2)c(C)c2c1[nH]c1ccc(Cl)cc12 [Compound 1]
protection against PTX-induced axonal degeneration ([1]; 12 μM Carba1 cotreatment with 50 nM PTX): prevented neuronal degeneration
protection against Bort-induced neuronal fragmentation ([1]; 12 μM Carba1 cotreatment with 100 nM Bort): prevent neuronal fragmentation
protection against Cis-induced neuronal fragmentation ([1]; 12 μM Carba1 cotreatment with 10 μM Cis): prevent neuronal fragmentation
axonal fragmentation / degeneration, agent alone ([1]; DIV 12 neurons, Carba1 12 μM, PTX 50 nM, Cis 10 μM, Bort 100 nM): did not show significant effects on neurite fragmentation
relief of FK866 cytotoxicity ([2]; HeLa cells, coadministration with FK866): counteracted the toxic effect of FK866 in a dose-dependent manner
GI50 ([2]; Homo sapiens, HeLa, cell viability, compound alone, read-out: GI50): > 25 µM
GI50 FK866 with carbazole/GI50 FK866 ([2]; ratio at the highest noncytotoxic dose of carbazole analog, readout of NAMPT activation): 2.6
GI50 PTX/GI50 PTX with carbazole ([2]; ratio at the highest noncytotoxic dose of carbazole analog, synergy with PTX): 2.5
GI50 [3]: > 25 µM
activation of NAMPT in vitro [4]: enhanced NAMPT activity in a dose-dependent manner
binding to NAMPT (AS-MS) [5]: directly binds to NAMPT
concentration of maximal protective effect against Cis-induced demyelination [6]: 5 µM
increase in NAD(P)H production [7]: about 30%
